ChEMBL document CHEMBL4118098, “Discovery of DS28120313 as a potent orally active hepcidin production inhibitor: Design and optimization of novel 4,6-disubstituted indazole derivatives” (Bioorg Med Chem Lett, 2017)

Tests used:
[1] = biological target: T1, Protein kinase C iota type (Homo sapiens) (UniProt P41743); assay: Inhibition of PKC-iota (unknown origin) at 0.45 uM relative to control
T1 sequence (whole entry): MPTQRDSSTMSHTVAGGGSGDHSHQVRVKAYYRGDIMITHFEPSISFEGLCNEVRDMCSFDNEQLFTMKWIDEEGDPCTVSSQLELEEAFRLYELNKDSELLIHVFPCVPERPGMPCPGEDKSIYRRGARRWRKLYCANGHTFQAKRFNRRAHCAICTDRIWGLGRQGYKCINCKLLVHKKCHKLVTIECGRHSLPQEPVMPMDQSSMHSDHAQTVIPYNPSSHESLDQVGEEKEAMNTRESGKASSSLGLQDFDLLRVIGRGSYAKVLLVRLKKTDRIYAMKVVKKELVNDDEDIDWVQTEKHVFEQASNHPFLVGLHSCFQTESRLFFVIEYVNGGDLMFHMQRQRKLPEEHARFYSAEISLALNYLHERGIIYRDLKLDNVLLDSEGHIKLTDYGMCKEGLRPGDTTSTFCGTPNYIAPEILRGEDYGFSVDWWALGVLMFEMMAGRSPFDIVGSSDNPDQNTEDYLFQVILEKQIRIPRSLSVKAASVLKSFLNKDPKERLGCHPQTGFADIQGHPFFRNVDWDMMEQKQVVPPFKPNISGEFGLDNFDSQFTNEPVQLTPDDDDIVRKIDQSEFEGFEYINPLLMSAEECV

[2] = biological target: Calcium/calmodulin-dependent protein kinase type II subunit beta (Homo sapiens) (UniProt Q13554); assay: Inhibition of CaMK2-beta (unknown origin) at 0.45 uM relative to control
[3] = biological target: Serine/threonine-protein kinase PAK 2 (Homo sapiens) (UniProt Q13177); assay: Inhibition of PAK2 (unknown origin) at 0.19 uM relative to control
Chain of Serine/threonine-protein kinase PAK 2 (Homo sapiens) (Q13177 whole entry): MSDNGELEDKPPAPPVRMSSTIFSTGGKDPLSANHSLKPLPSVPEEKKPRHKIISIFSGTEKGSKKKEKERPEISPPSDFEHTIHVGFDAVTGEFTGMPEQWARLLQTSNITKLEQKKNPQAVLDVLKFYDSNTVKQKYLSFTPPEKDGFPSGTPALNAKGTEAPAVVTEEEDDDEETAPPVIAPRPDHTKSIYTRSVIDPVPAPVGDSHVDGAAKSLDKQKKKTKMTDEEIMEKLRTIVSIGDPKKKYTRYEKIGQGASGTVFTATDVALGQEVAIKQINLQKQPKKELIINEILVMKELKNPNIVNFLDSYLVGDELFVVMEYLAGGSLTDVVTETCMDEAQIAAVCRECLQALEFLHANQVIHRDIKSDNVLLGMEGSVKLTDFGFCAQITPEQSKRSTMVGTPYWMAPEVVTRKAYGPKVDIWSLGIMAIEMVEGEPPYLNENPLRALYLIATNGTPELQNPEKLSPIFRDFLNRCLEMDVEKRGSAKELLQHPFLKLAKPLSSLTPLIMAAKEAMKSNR

[4] = biological target: Death-associated protein kinase 3 (Homo sapiens) (UniProt O43293); assay: Inhibition of ZIPK (unknown origin) at 0.19 uM relative to control
[5] = biological target: Calcium/calmodulin-dependent protein kinase type 1D (Homo sapiens) (UniProt Q8IU85); assay: Inhibition of CamK1d (unknown origin) at 0.19 uM relative to control
Chain of Calcium/calmodulin-dependent protein kinase type 1D (Homo sapiens) (Q8IU85 whole entry, looked up): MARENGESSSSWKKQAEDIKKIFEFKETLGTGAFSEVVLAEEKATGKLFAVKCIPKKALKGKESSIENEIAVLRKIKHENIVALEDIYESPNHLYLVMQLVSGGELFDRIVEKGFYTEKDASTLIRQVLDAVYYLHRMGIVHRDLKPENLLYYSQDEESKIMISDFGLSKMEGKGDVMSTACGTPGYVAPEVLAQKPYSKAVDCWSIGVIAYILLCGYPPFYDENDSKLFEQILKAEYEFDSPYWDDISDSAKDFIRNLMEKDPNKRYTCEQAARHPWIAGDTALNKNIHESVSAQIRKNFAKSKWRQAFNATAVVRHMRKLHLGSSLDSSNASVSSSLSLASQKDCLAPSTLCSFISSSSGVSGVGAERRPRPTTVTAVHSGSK

[6] = biological target: Dual specificity tyrosine-phosphorylation-regulated kinase 2 (Homo sapiens) (UniProt Q92630); assay: Inhibition of DYRK2 (unknown origin) at 0.19 uM relative to control
[7] = test system: Fibroblast growth factor receptor 4 (Homo sapiens), P22455 [V550L]; assay: Inhibition of FGFR4 V550L mutant (unknown origin) at 0.19 uM relative to control
Chain of Fibroblast growth factor receptor 4 (Homo sapiens), P22455 [V550L] (P22455 whole entry V550L): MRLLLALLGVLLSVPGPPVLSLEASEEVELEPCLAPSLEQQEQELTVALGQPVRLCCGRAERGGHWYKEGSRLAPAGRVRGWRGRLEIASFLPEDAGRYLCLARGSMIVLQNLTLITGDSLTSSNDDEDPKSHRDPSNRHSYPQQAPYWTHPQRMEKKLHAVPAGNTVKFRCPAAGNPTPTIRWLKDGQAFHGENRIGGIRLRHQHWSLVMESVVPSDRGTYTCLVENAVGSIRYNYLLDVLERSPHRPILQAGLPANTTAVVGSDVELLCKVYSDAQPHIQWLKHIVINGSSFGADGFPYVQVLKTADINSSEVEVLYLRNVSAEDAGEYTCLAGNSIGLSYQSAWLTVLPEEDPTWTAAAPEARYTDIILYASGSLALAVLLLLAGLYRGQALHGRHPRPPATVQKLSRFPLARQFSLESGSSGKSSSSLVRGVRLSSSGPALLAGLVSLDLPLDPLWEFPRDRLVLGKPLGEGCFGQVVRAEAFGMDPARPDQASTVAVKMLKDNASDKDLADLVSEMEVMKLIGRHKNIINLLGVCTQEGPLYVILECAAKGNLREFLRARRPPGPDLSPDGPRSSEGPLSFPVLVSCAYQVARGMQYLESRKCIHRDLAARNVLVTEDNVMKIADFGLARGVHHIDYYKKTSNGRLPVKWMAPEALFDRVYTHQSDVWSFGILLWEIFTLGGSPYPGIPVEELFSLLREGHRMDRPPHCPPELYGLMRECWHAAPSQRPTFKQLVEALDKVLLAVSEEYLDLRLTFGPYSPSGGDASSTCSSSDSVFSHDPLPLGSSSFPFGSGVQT

[8] = biological target: Tyrosine-protein kinase Tec (Homo sapiens) (UniProt P42680); assay: Inhibition of TEC (unknown origin) at 0.19 uM relative to control
[9] = biological target: Ephrin type-A receptor 8 (Homo sapiens) (UniProt P29322); assay: Inhibition of EPHA8 (unknown origin) at 0.19 uM relative to control
[10] = biological target: cAMP-dependent protein kinase catalytic subunit PRKX (Homo sapiens) (UniProt P51817); assay: Inhibition of PRKX (unknown origin) at 0.19 uM relative to control
Chain of cAMP-dependent protein kinase catalytic subunit PRKX (Homo sapiens) (P51817 whole entry): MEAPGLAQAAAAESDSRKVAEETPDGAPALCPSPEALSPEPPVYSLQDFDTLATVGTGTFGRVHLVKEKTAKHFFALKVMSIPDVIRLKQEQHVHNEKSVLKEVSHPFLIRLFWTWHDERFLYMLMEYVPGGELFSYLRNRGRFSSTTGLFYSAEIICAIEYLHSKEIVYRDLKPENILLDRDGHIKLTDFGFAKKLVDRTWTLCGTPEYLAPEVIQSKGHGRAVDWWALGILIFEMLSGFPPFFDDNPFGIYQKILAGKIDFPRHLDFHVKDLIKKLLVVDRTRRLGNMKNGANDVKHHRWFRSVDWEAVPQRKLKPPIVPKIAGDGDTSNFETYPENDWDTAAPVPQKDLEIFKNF

[11] = biological target: Dual specificity tyrosine-phosphorylation-regulated kinase 1A (Homo sapiens) (UniProt Q13627); assay: Inhibition of DYRK1a (unknown origin) at 0.19 uM relative to control
[12] = test system: Receptor-type tyrosine-protein kinase FLT3 (Homo sapiens), P36888 [D835Y]; assay: Inhibition of Flt3 D835Y mutant (unknown origin) at 0.19 uM relative to control
[13] = biological target: T2, Testis-specific serine/threonine-protein kinase 1 (Homo sapiens) (UniProt Q9BXA7); assay: Inhibition of TSSK1 (unknown origin) at 0.19 uM relative to control
T2 sequence (whole entry): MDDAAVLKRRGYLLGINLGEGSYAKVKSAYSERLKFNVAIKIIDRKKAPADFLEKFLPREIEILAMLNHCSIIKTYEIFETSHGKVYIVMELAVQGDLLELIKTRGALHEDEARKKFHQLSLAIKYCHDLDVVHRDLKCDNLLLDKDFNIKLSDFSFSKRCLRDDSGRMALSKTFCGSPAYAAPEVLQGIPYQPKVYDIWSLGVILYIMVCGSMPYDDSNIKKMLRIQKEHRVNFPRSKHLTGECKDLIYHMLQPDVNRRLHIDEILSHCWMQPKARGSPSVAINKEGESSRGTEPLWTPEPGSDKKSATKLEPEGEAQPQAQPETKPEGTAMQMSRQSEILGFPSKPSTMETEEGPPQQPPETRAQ

[14] = biological target: Fibroblast growth factor receptor 2 (Homo sapiens) (UniProt P21802); assay: Inhibition of FGFR2 (unknown origin) at 0.19 uM relative to control
[15] = biological target: Ephrin type-A receptor 5 (Homo sapiens) (UniProt P54756); assay: Inhibition of EPHA5 (unknown origin) at 0.19 uM relative to control
[16] = biological target: Tyrosine-protein kinase Fer (Homo sapiens) (UniProt P16591); assay: Inhibition of Fer (unknown origin) at 0.19 uM relative to control
[17] = biological target: Serine/threonine-protein kinase D3 (Homo sapiens) (UniProt O94806); assay: Inhibition of PKD3 (unknown origin) at 0.164 uM relative to control
Chain of Serine/threonine-protein kinase D3 (Homo sapiens) (O94806 whole entry): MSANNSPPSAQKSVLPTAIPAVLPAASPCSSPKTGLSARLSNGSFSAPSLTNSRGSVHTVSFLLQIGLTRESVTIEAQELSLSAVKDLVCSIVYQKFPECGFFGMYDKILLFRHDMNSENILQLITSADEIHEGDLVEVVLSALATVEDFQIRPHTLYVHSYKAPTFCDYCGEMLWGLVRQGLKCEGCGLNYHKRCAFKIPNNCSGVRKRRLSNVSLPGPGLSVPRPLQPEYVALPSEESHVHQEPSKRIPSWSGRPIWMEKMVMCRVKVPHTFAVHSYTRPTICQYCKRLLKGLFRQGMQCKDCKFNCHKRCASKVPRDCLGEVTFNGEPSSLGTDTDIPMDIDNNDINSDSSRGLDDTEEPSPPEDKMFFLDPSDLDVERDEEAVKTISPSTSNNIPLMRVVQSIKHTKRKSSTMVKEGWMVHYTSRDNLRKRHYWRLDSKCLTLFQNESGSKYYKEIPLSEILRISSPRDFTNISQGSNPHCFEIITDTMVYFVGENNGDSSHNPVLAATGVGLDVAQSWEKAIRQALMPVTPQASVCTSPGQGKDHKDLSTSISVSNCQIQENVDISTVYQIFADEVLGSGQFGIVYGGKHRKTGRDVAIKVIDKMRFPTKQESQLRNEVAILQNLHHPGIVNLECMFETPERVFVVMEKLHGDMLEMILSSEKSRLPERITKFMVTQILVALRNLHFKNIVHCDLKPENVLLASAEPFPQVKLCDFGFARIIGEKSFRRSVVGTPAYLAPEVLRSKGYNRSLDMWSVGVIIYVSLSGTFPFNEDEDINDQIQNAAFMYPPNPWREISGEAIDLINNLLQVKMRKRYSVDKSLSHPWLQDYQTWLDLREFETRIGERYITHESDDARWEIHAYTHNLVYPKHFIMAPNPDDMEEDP

[18] = biological target: Interleukin-1 receptor-associated kinase 4 (Homo sapiens) (UniProt Q9NWZ3); assay: Inhibition of IRAK4 (unknown origin) at 0.164 uM relative to control
Chain of Interleukin-1 receptor-associated kinase 4 (Homo sapiens) (Q9NWZ3 whole entry): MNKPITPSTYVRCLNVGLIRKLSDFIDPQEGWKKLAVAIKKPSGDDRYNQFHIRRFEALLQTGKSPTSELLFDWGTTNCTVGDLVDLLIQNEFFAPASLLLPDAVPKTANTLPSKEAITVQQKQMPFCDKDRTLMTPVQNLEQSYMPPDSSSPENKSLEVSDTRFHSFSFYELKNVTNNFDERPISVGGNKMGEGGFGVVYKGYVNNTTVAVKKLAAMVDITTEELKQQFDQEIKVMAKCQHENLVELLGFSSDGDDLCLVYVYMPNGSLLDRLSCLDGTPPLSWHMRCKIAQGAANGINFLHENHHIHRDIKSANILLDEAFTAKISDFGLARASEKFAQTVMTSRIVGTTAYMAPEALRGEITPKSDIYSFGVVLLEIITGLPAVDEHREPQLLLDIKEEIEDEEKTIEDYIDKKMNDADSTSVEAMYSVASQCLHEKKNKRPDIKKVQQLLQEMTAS

[19] = biological target: Maternal embryonic leucine zipper kinase (Homo sapiens) (UniProt Q14680); assay: Inhibition of MELK (unknown origin) at 0.164 uM relative to control
[20] = biological target: Ephrin type-B receptor 3 (Homo sapiens) (UniProt P54753); assay: Inhibition of EPHB3 (unknown origin) at 0.164 uM relative to control
[21] = biological target: MAP/microtubule affinity-regulating kinase 3 (Homo sapiens) (UniProt P27448); assay: Inhibition of c-TAK1 (unknown origin) at 0.164 uM relative to control
Chain of MAP/microtubule affinity-regulating kinase 3 (Homo sapiens) (P27448 whole entry, looked up): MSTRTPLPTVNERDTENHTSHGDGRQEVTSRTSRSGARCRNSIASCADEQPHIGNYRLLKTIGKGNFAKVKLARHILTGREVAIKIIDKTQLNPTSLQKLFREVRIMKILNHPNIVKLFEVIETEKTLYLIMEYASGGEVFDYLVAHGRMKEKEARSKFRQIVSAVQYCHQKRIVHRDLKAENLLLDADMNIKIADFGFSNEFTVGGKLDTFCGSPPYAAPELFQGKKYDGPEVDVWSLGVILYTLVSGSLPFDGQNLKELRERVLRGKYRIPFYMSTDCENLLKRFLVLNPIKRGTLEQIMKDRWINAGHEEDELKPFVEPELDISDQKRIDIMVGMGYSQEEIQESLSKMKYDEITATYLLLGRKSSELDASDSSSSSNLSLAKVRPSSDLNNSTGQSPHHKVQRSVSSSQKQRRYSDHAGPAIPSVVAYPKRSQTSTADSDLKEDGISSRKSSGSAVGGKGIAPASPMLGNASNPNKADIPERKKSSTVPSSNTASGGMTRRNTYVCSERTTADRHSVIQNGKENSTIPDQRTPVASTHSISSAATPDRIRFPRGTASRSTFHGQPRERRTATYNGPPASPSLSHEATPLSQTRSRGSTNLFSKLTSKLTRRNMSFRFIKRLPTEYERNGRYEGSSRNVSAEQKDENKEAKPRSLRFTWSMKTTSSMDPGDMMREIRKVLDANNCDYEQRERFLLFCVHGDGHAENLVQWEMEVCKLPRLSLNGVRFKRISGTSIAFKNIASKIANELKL

[22] = biological target: Serine/threonine-protein kinase Nek6 (Homo sapiens) (UniProt Q9HC98); assay: Inhibition of NEK6 (unknown origin) at 0.164 uM relative to control
[23] = biological target: Tyrosine-protein kinase JAK2 (Homo sapiens) (UniProt O60674); assay: Inhibition of JAK2 (unknown origin) at 0.164 uM relative to control
[24] = biological target: Serine/threonine-protein kinase 10 (Homo sapiens) (UniProt O94804); assay: Inhibition of LOK (unknown origin) at 0.164 uM relative to control
[25] = biological target: Ribosomal protein S6 kinase alpha-5 (Homo sapiens) (UniProt O75582); assay: Inhibition of MSK1 (unknown origin) at 0.164 uM relative to control
Chain of Ribosomal protein S6 kinase alpha-5 (Homo sapiens) (O75582 whole entry, looked up): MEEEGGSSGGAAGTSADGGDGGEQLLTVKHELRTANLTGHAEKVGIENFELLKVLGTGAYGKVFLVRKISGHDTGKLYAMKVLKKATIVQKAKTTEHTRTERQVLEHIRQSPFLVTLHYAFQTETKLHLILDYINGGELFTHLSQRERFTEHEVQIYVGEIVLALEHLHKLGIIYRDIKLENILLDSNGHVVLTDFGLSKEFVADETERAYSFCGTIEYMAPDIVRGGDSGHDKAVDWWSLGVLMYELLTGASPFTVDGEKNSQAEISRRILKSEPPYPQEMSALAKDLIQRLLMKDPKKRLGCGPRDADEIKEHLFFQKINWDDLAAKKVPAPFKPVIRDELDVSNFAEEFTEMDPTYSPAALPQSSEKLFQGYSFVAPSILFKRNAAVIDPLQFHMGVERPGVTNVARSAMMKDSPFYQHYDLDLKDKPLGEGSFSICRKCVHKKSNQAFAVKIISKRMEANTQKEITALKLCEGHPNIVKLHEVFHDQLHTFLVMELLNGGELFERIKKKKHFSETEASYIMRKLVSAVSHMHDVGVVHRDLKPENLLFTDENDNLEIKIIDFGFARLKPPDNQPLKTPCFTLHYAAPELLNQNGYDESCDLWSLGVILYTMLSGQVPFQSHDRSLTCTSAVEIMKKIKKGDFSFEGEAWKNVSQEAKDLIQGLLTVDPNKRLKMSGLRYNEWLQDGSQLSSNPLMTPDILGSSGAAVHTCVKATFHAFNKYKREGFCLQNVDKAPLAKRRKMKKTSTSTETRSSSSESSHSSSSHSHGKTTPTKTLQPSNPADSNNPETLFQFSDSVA

## Cc1n[nH]c(C)c1-c1ccc2c(NC(=O)c3ccc(N4CCN(C)CC4)cc3)n[nH]c2c1
[1]
  inhibition: -6.7%
[2]
  inhibition: -0.3%

## Cc1[nH]nc(C2CC2)c1-c1ccc2c(-c3ccc(N4CCN(C)CC4)nc3)n[nH]c2c1
[3]
  inhibition: -3%
[4]
  inhibition: -2%
[5]
  inhibition: -1.7%
[6]
  inhibition: -0.7%
[7]
  inhibition: 0.7%
[8]
  inhibition: 2%
[9]
  inhibition: 9.3%
[10]
  inhibition: 2.3%
[11]
  inhibition: 3.3%
[12]
  inhibition: 93.7%
[13]
  inhibition: -6.3%
[14]
  inhibition: 4%
[15]
  inhibition: 3%
[16]
  inhibition: -2.3%

## COC(=O)Nc1cc(-c2c(C3CC3)n[nH]c2C)cc2[nH]ncc12
[17]
  inhibition: 2.7%
[18]
  inhibition: -7.7%
[19]
  inhibition: 10.7%
[20]
  inhibition: 0.7%
[21]
  inhibition: 2%
[22]
  inhibition: 4.3%
[23]
  inhibition: -4.3%
[24]
  inhibition: 3.7%
[25]
  inhibition: 7.7%
